Consider nine compounds from patent US4711895A, “4-hydroxy-2-cyclopentenone, process for production thereof, pharmaceutical composition comprising it” (Teijin Limited, priority 1984, dated 1987).

Values after ≈ are worked out from the molar mass of the structure shown. Like-named read-outs stand apart in the source and are kept apart here.

The subject of one assay is L1210 leukemia cells. Nature of the assay: Action of inhibiting proliferation of L1210 leukemia cell. The note with it: RPMI medium, 10% FCS, 37° C., 4 days, trypan blue. Format: cell-based. The method, then:
Measurement of the action of inhibiting Proliferation of L1210 leukemia cell
L1210 leukemia cells were added to an RPMI medium containing 10% FCS (fetal calf serum), and the concentration of the cells was adjusted to […]. Each of the test compounds shown in Table I was dissolved in 99.5% ethanol. Prior to use, the final concentration of the ethanol solution was adjusted to less than 0.1%, and it was added to the culture medium. The culture medium was then maintained at 37° C. in a stationary condition for 4 days. After the cultivation, the number of surviving cells was measured by dyeing with trypan blue. As a control, 0.1% ethanol was used. A dose-reaction curve plotted from the ratios of proliferation against the control, and IC50 was determined.

The test system of assay [1] is P388 mouse leukemia cells. Nature of the assay: Antitumor effect on P388 mouse leukemia tumor in ICR mice. Type of assay: in vivo. Conditions: i.p., 5 days. The protocol:
Measurement of the antitumor effect on P338 mouse leukemia tumor
1×10^5 P388 mouse leukemia cells were intraperitoneally administered to ICR mice. After the lapse of 24 hours, each of the test compounds shown in Table II was intraperitoneally administered to the mice for 5 days. The periods of survival of these animals were examined and the increase of their life span (ILS%) were determined.

Setting [2] is: Mus musculus, 96 h, read-out: IC50.

By IC50 is commonly meant the concentration that inhibits the measured activity by half. Turning to `CCCCCCCC[C@@]1(O)C=CC(=O)/C1=C/CCCCCC(=O)OC` [Compound 142, (4R)-5-[(E)-6-methoxycarbonylhexylidene]-4-hydroxy-4-octyl-2-cyclopentenone], the IC50 in the assay with L1210 leukemia cells (setting [2]) was 0.15 µg/mL (≈ 0.428 µM). In addition, in assay [1] (5 mg/kg/day), the “Increase of life span ILS (%)” value was 5.4% and the “Survival” value worked out at 10.3 ± 0.5 days. In addition, in assay [1] (10 mg/kg/day), the “Increase of life span ILS (%)” value was 15.3% and the “Survival” value is 11.3 ± 0.5 days.
On to `O=C1C=CC(O)(CCCCOc2ccccc2)C1=C/C=C/C(O)CCCO` (stereo not drawn) [Compound 148], for which the IC50 in the assay on L1210 leukemia cells turned out to be 1.5 µg/mL (≈ 4.03 µM). The “Increase of life span ILS (%)” value in assay [1] (2.5 mg/kg/day) was 15.3%; in assay [1] (5 mg/kg/day) it was 32.7%; in assay [1] (10 mg/kg/day), 29.6%. The “Survival” value in assay [1] (2.5 mg/kg/day) is recorded as 11.3 ± 0.5 days; in assay [1] (5 mg/kg/day), 13.0 ± 1.4 days; in assay [1] (10 mg/kg/day) it was 12.7 ± 0.7 days.
For `COC(=O)CCCCCC=C1C(=O)C(Cl)=CC1(O)CCCc1ccc(OC)c(OC)c1` (stereo not drawn) [Compound 152, 2-chloro-4-hydroxy-4-[3-(3,4-dimethoxyphenyl)propyl]-5-(6-methoxycarbonylhexylidene)-2-cyclopentenone], the IC50 with L1210 leukemia cells (setting [2]) was determined as 0.06 µg/mL (≈ 0.133 µM). Further, in assay [1] (10 mg/kg/day), the “Increase of life span ILS (%)” value is 19.4% and the “Survival” value came out at 11.7 ± 1.1 days.
Consider `CCCCCCCC[C@@]1(O)C=CC(=O)/C1=C\CCCCCC(=O)OC` [Compound 144, (4R)-5-[(Z)-6-methoxycarbonylhexylidene]-4-hydroxy-4-octyl-2-cyclopentenone], for which the IC50 in the assay with L1210 leukemia cells (setting [2]) is 0.15 µg/mL (≈ 0.428 µM). Besides, the entries for the “Increase of life span ILS (%)” value in assay [1] (5 mg/kg/day), in assay [1] (10 mg/kg/day) and in assay [1] (15 mg/kg/day) were 2.9%, 17.3% and 12.5%, respectively. Moreover, the results for the “Survival” value in assay [1] (5 mg/kg/day), in assay [1] (10 mg/kg/day) and in assay [1] (15 mg/kg/day) were 10.7 ± 0.5 days, 12.2 ± 1.2 days and 11.7 ± 0.5 days, respectively.
As to `CC(C)=CCCC(C)=CC(O)C1C(=O)C=CC1(O)CCCCOc1ccccc1` (stereo not drawn) [Compound 228, 4-(4-phenoxybutyl)-4-hydroxy-5-(3,7-dimethyl-1-hydroxy-2,6-octadiene)-2-cyclopentenone], the IC50 with L1210 leukemia cells (setting [2]) came to 0.4 µg/mL (≈ 1 µM). Moreover, in assay [1] (15 mg/kg/day), the “Increase of life span ILS (%)” value is listed as 4.1% and the “Survival” value worked out at 10.2 ± 0.9 days.
Consider `COC(=O)CCCCC/C=C1\C(=O)C(Cl)=CC1(O)CCC(C)CCCC(C)C` (stereo not drawn) [Compound 156, 2-chloro-4-(3,7-dimethyloctyl)-4-hydroxy-5-[(Z)-6-methoxycarbonylhexylidene]-2-cyclopentenone], for which, in the assay on L1210 leukemia cells (setting [2]), the IC50 was 0.035 µg/mL (≈ 0.0847 µM).
For `CCCCCCCCC1(O)C=C(Cl)C(=O)C1=CCCCCCC(=O)OC` (stereo not drawn) [Compound 154, 2-chloro-4-hydroxy-5-(6-methoxycarbonylhexylidene)-4-octyl-2-cyclopentenone], in the assay on L1210 leukemia cells (setting [2]), the IC50 amounted to 0.03 µg/mL (≈ 0.0779 µM). In addition, in assay [1] (10 mg/kg/day), the “Increase of life span ILS (%)” value stood at 7.1% and the “Survival” value turned out to be 10.5 ± 0.8 days.
With `COC(=O)CCCCCC(O)C1C(=O)C(Cl)=CC1(O)CCCc1ccc(OC)c(OC)c1` (stereo not drawn) [Compound 226, 2-chloro-4-hydroxy-4-[3-(3,4-dimethoxyphenyl)propyl]-5-(1-hydroxy-6-methoxycarbonylhexyl)-2-cyclopentenone], the IC50 with L1210 leukemia cells (setting [2]) was found to be 0.2 µg/mL (≈ 0.426 µM). In addition, in assay [1] (5 mg/kg/day), the “Increase of life span ILS (%)” value was 10.0% and the “Survival” value came to 11.0 ± 0 days.
For `COC(=O)CCCCC/C=C1/C(=O)C(Cl)=CC1(O)CCC(C)CCCC(C)C` (stereo not drawn) [Compound 158, 2-chloro-4-(3,7-dimethyloctyl)-4-hydroxy-5-[(E)-6-methoxycarbonylhexylidene]-2-cyclopentenone], the IC50 in the assay on L1210 leukemia cells (setting [2]) was determined as 0.025 µg/mL (≈ 0.0605 µM).
